The values below come from ChEMBL document CHEMBL2417535, “Synthesis and structure-activity relationships evaluation of benzothiazinone derivatives as potential anti-tubercular agents” (Bioorg Med Chem Lett, 2013).

Values after ≈ are worked out from the molar mass of the structure shown.

A short description of data set [1]: Selectivity index, ratio of IC50 for african green monkey Vero cells to MIC for Mycobacterium tuberculosis H37Ra ATCC 25177. Format: functional.
Data set [2] relates to Mycobacterium tuberculosis. Kind of data set: Antitubercular activity against Mycobacterium tuberculosis H37Ra ATCC 25177 by microplate alamar blue assay. Format: functional. In general terms: Alamar Blue is a resazurin reagent that responds to reducing activity.
The next data set has as its system Vero. Kind of data set: Cytotoxicity against african green monkey Vero cells after 72 hrs by MTT assay. Format: cell-based. The following applies: Chlorocebus sabaeus. On the technique in general: Tetrazolium assays rely on reduction of a dye to a coloured formazan, in cell work by metabolically active cells.
In data set [3] the test system is Mycobacterium tuberculosis. The experiment in a line: Antitubercular activity against Mycobacterium tuberculosis H37Rv ATCC 27294 by microdilution plate assay. The format is functional. On the technique in general: In broth dilution the organism is exposed to a series of concentrations in liquid medium.
A short description of data set [4]: Selectivity index, ratio of IC50 for african green monkey Vero cells to MIC for Mycobacterium tuberculosis H37Rv ATCC 27294. Format: functional.
The test system of a further data set is Mycobacterium avium. The experiment in a line: Antitubercular activity against Mycobacterium avium ATCC 25291 by microdilution plate assay. The format is functional, Mycobacterium avium subsp. avium ATCC 25291.
The test system of data set [5] is Mycolicibacterium smegmatis. Kind of data set: Antitubercular activity against Mycobacterium smegmatis MC2 155 by microplate alamar blue assay. The format is functional. The note with it: str. MC2 155.
Data set [6] can be described thus: Lipophilicity, log P of the compound by shake flask method. Format: physicochemical. The following applies: octanol/water.
Data set [7] has as its system Mycobacterium tuberculosis. The experiment in a line: Ratio of isoniazid MIC to compound MIC for Mycobacterium tuberculosis H37Rv ATCC 27294. Format: functional.
The nature of data set [8]: Tmax in Sprague-Dawley rat at 20 mg/kg, po. The format is ADME, organism-based. The arrangement: dose 20 mg/kg, route oral. The note with it: in vivo.
Data set [9] is described as follows: Elimination half life in Sprague-Dawley rat at 10 mg/kg, iv. The following applies: in vivo, read-out: beta t1/2 (converted). Further details: dose 10 mg/kg, route intravenous. The format is ADME, organism-based.
Another data set has as its system Mus musculus. The experiment in a line: Acute toxicity in BALB/c mouse assessed as mortality at 2 g/kg, po. The format is organism-based. The following applies: in vivo, 2000 mg/kg.
Data set [10] can be described thus: Elimination half life in Sprague-Dawley rat at 20 mg/kg, po. The note with it: in vivo, read-out: beta t1/2 (converted). The format is ADME, organism-based. The arrangement: dose 20 mg/kg, route oral.
Data set [11] is described as follows: Cmax in Sprague-Dawley rat at 10 mg/kg, iv. The format is ADME, organism-based. The arrangement: dose 10 mg/kg, route intravenous. The note with it: in vivo.
Data set [12] is described as follows: Cmax in Sprague-Dawley rat at 20 mg/kg, po. Format: ADME, organism-based. The arrangement: dose 20 mg/kg, route oral. The following applies: in vivo.
Data set [13] can be described thus: Oral bioavailability in Sprague-Dawley rat at 20 mg/kg. Format: ADME, organism-based. The note with it: in vivo.
Data set [14] can be described thus: AUC (0 to infinity) in Sprague-Dawley rat at 20 mg/kg, po. The arrangement: dose 20 mg/kg, route oral, time infinity. Format: ADME, organism-based. The following applies: plasma.
Data set [15] can be described thus: AUC (0 to infinity) in Sprague-Dawley rat at 10 mg/kg, iv. The following applies: plasma. The format is ADME, organism-based. Further details: time infinity, dose 10 mg/kg, route intravenous.

The term MIC denotes the smallest concentration in the dilution series that meets the test's criterion for growth inhibition. The term IC50 denotes the point on the concentration scale where inhibition reaches its midpoint. Turning to `CC(C)CNc1nc(=O)c2cc(C(F)(F)F)cc([N+](=O)[O-])c2s1`, in data set [1], the “Selectivity Index” value is recorded as greater than 125. In addition, it took 0.8 µM (≈ 278 ng/mL) to inhibit growth in data set [2] (MIC). In addition, in the data set on Vero, the half-inhibitory concentration (IC50) was greater than 100 µM.
For `O=c1nc(NC2CC2)sc2c([N+](=O)[O-])cc(C(F)(F)F)cc12`, the “Selectivity Index” value in data set [1] is reported as greater than 250. The compound also registered an MIC in data set [2] of 0.4 µM (≈ 133 ng/mL). In the data set on Vero, this compound came in with an IC50 greater than 100 µM.
`CCCNc1nc(=O)c2cc([N+](=O)[O-])cc([N+](=O)[O-])c2s1` came in with an MIC in data set [2] of 3.1 µM (≈ 962 ng/mL).
Turning to `O=c1nc(N2CCCCC2)sc2c([N+](=O)[O-])cc(C(F)(F)F)cc12`, the figures for the minimum inhibitory concentration (MIC) in [3] and in data set [2] were 0.7 µM (≈ 252 ng/mL) and 0.8 µM (≈ 287 ng/mL), respectively. In data set [4], the “Selectivity Index” value is recorded as greater than 142. Further, in the data set with Vero, the IC50 is greater than 100 µM.
On to `CCCCNc1nc(=O)c2cc(C(F)(F)F)cc([N+](=O)[O-])c2s1`, for which the “Selectivity Index” value in data set [1] is greater than 125. In [2], this compound registered an MIC of 0.8 µM (≈ 278 ng/mL). In the data set on Vero, this compound registered an IC50 greater than 100 µM.
Take `CCCNc1nc(=O)c2cc(C(F)(F)F)cc([N+](=O)[O-])c2s1`: the “Selectivity Index” value in data set [1] was greater than 62. In data set [2], this compound displayed a minimum inhibitory concentration (MIC) of 1.6 µM (≈ 533 ng/mL). Moreover, the half-inhibitory concentration (IC50) in the data set with Vero is greater than 100 µM.
In data set [2], `CC(C)(C)Nc1nc(=O)c2cc([N+](=O)[O-])cc([N+](=O)[O-])c2s1` yielded a minimum inhibitory concentration (MIC) of 0.4 µM (≈ 130 ng/mL).
With `O=c1nc(N2CCOCC2)sc2c([N+](=O)[O-])cc(C(F)(F)F)cc12`, the “Selectivity Index” value in [1] is recorded as greater than 32. The MIC in data set [2] was determined as 3.1 µM (≈ 1120 ng/mL). This compound showed a half-maximal inhibitory concentration (IC50) in the data set on Vero greater than 100 µM.
In turn, `CC(C)CNc1nc(=O)c2cc([N+](=O)[O-])cc([N+](=O)[O-])c2s1` came in with an MIC in data set [2] of 1.6 µM (≈ 519 ng/mL).
With `CCCCNc1nc(=O)c2cc([N+](=O)[O-])cc([N+](=O)[O-])c2s1`, the MIC in data set [2] was determined as 0.8 µM (≈ 259 ng/mL).
With `NNC(=O)c1ccncc1` [ISONIAZID], the MIC in data set [3] is 0.2 µM (≈ 27.4 ng/mL); in data set [2] it was 0.8 µM (≈ 110 ng/mL). Moreover, the “Selectivity Index” value in data set [4] is reported as greater than 500. The half-inhibitory concentration (IC50) with Vero is greater than 100 µM.
On to `CC(C)(C)OC(=O)N1CCN(c2nc(=O)c3cc([N+](=O)[O-])cc([N+](=O)[O-])c3s2)CC1`, for which the MIC in [2] was determined as 0.4 µM (≈ 175 ng/mL).
On to `CCN(CC)c1nc(=O)c2cc(C(F)(F)F)cc([N+](=O)[O-])c2s1`, for which the “Selectivity Index” value in [1] is listed as greater than 125. The compound also came in with an MIC in data set [2] of 0.8 µM (≈ 278 ng/mL). In the data set with Vero, this compound showed a concentration for half-maximal inhibition (IC50) greater than 100 µM.
By logP is commonly meant a log measure of how a compound divides between an organic and an aqueous phase. As to `CC1COC2(CCN(c3nc(=O)c4cc(C(F)(F)F)cc([N+](=O)[O-])c4s3)CC2)O1` (racemic), the MIC in [3] was determined as 0.002 µM (≈ 0.863 ng/mL); against Mycobacterium avium, 74 µM (≈ 31900 ng/mL); in data set [5], 0.013 µM (≈ 5.61 ng/mL); in data set [2], 0.004 µM (≈ 1.73 ng/mL). The “Selectivity Index” value in data set [4] is on record as greater than 50000. In addition, the logP in data set [6] turned out to be 2.69. This compound also showed an IC50 in the data set with Vero greater than 100 µM.
Regarding `O=c1nc(N2CCC3(CC2)OCCS3)sc2c([N+](=O)[O-])cc(C(F)(F)F)cc12`, the MIC in data set [3] and in data set [2] was 0.002 µM (≈ 0.867 ng/mL) each time. Further, in [4], the “Selectivity Index” value was greater than 50000. In the data set on Vero, the IC50 was greater than 100 µM.
On to `CC1CCN(c2nc(=O)c3cc(C(F)(F)F)cc([N+](=O)[O-])c3s2)CC1`, for which the MIC amounted to 0.08 µM (≈ 29.9 ng/mL) in data set [3] and 0.1 µM (≈ 37.3 ng/mL) in data set [2]. Besides, in data set [7], the Ratio is 2.5. In data set [4], the “Selectivity Index” value was greater than 1250. The compound further came in with an IC50 in the data set on Vero greater than 100 µM.
Turning to `O=c1nc(NC2CCCC2)sc2c([N+](=O)[O-])cc(C(F)(F)F)cc12`, the “Selectivity Index” value in data set [1] was greater than 125. Also, the MIC in data set [2] was found to be 0.8 µM (≈ 287 ng/mL). In the data set with Vero, this compound had an IC50 greater than 100 µM.
As usually defined, the Tmax is the time from dosing to the highest level. What is called Cmax is the highest concentration seen after dosing. One may read the bioavailability as the share of a dose that reaches the circulation, judged against a reference dose that is usually intravenous. Usually AUC(0-inf) stands for total exposure, with the tail of the curve extrapolated. For `O=c1nc(N2CCC3(CC2)SCCS3)sc2c([N+](=O)[O-])cc(C(F)(F)F)cc12`, the MIC in data set [3] is 0.0001 µM (≈ 0.045 ng/mL); in the data set on Mycobacterium avium, 36 µM (≈ 16200 ng/mL); in [5] it was 0.0063 µM (≈ 2.83 ng/mL); in data set [2] it was 0.001 µM (≈ 0.45 ng/mL). Besides, the Tmax in [8] amounted to 0.5 h. Also, the half-life in data set [9] was 2.5 h; in data set [10] it was 5.4 h. In addition, in the data set with Mus musculus, the Activity result is “Non-toxic”. In addition, the results for the Cmax in [11] and in data set [12] were 1720 ng/mL and 560 ng/mL, respectively. Further, the Ratio in data set [7] worked out at 2000. This compound displayed a bioavailability in data set [13] of 26%. Moreover, the “Selectivity Index” value in [4] is greater than 1000000. Moreover, the AUC(0-inf) in data set [14] stood at 780 ng·h/mL; in data set [15], 1480 ng·h/mL. The compound also registered a logP in data set [6] of 3.94. The compound further had an IC50 in the data set on Vero greater than 100 µM.
Take `O=C(O)C1CCN(c2nc(=O)c3cc(C(F)(F)F)cc([N+](=O)[O-])c3s2)CC1`: the “Selectivity Index” value in data set [1] is given as greater than 32. The lowest concentration to inhibit growth in [2] (MIC) was 3.1 µM (≈ 1250 ng/mL). Further, the IC50 in the data set on Vero is greater than 100 µM.
Taken in the same sequence, the figures for `O=c1nc(N2CCCC2)sc2c([N+](=O)[O-])cc(C(F)(F)F)cc12` were greater than 125, 0.8 µM (≈ 276 ng/mL) and greater than 100 µM.
On to `CCNc1nc(=O)c2cc(C(F)(F)F)cc([N+](=O)[O-])c2s1`, for which, in data set [1], the “Selectivity Index” value was greater than 16. The compound also gave a minimum inhibitory concentration (MIC) in data set [2] of 6.3 µM (≈ 2010 ng/mL). Besides, in the data set with Vero, the IC50 was greater than 100 µM.
In turn, `CC1CCN(c2nc(=O)c3cc([N+](=O)[O-])cc([N+](=O)[O-])c3s2)CC1` gave an MIC in data set [2] of 0.2 µM (≈ 70.1 ng/mL).
For `CC(C)(C)OC(=O)N1CCN(c2nc(=O)c3cc(C(F)(F)F)cc([N+](=O)[O-])c3s2)CC1`, the MIC in [3] was determined as 0.03 µM (≈ 13.8 ng/mL); in data set [2], 0.02 µM (≈ 9.21 ng/mL). Besides, in [7], the Ratio was determined as 6.7. The “Selectivity Index” value in data set [4] is listed as greater than 3000. Also, the IC50 in the data set on Vero was greater than 100 µM.
